Results as given in a melting point compilation (Tetko et al.; mined from patent text by program, amines drawn as free bases though some values may be those of a salt).

| SMILES | melting point |
| --- | --- |
| Nc1nc(-n2cc(C(=O)O)c(=O)c3c(F)c(F)c(F)c(F)c32)c(F)cc1F | 236 to 242 °C |
| O=C1CC[C@@H](c2ccccc2)[C@H](c2ccccc2)N1 (relative stereo) | 160 to 164 °C |
| O=C(/C=C/c1ccc(C(F)(F)F)cc1-c1cccnc1)Nc1ccc2[nH]ccc2c1 | 196 to 197 °C |
| Nc1cccc2c1nnn2C1CCCCC1 | 54 to 60 °C |
| CCCC(=O)SC1CCN(C(C(=O)C2CC2)c2ccccc2F)CC1 (stereo not drawn) | 97 to 98 °C |
| CC(C)OC(=O)c1ccc(OCC(=NO)c2ccc3c(c2)C(C)(C)CCC3(C)C)cc1O | 130 °C |
| O=C1Cc2cc3c(cc2C(c2ccc([N+](=O)[O-])cc2)=NN1)OCO3 | 293 to 295 °C |
| COc1cc2c(c(Cl)c1Cl)C(=O)C(CCOC(C)=O)=C2 | 134 to 136 °C |
| CCOC(=O)OC1Oc2ccc(OS(C)(=O)=O)cc2C1(C)C (stereo not drawn) | 85 to 87 °C |
| Cn1c([N+](=O)[O-])cnc1COc1ccc(SC#N)cc1 | 140 °C |
| Cc1c(C)c(O)c(CN(C)C)c(C)c1O | 103 to 108 °C |
| Nc1nn(-c2ccccc2)c(N)c1CN1CCN(c2cccc3c2OCCO3)CC1 | 84 to 87 °C |
| O=c1c2cnc(-c3ccccc3)nc2sn1CCc1ccccc1 | 144 to 147 °C |
| O=[N+]([O-])c1cc2c(cc1O)CCCC2 | 88 to 89 °C |
| CCN(CC)CC(O)c1cccc2ccoc12 (stereo not drawn) | 116 °C |
| Cc1cc2c(O)cccc2[nH]1 | 168 to 170 °C |
| COC(=O)c1cn(S(=O)(=O)c2ccccc2)c2ncc([N+](=O)[O-])cc12 | 195 to 196 °C |
| CCCCCCCCCC/C=C\COCc1ccc(CCC(=O)O)cc1 | 35 to 36 °C |
| CC1(C)Oc2ccc(OC(F)(F)F)cc2[C@@H](NC(=O)c2ccco2)[C@@H]1O (relative stereo) | 146 to 147 °C |
| O=C(O)c1cccc([N+](=O)[O-])c1O | 123 °C |
| CCCc1nc2c(c(C)c(C)n3nnnc23)n1CC(C)(C)NS(C)(=O)=O | 190 to 192 °C |
| CCN(CC)C(=S)Oc1ccc2c(c1)Oc1ccccc1S2 | 121 to 123 °C |
| Cc1cccc2c1OC(c1ccccc1)([N+](=O)[O-])C2 (stereo not drawn) | 122 to 126 °C |
| Cc1ccccc1-c1nc(N)ncc1-c1ccc(=O)[nH]n1 | 313 °C |
| Nc1cccc(-c2ccc(CCN3CCN(C(=O)Oc4ccccc4)CC3)cc2)n1 | 102 to 104 °C |

Next, values leading:

| melting point | SMILES |
| --- | --- |
| 119 to 120 °C | CN(Cc1cc2c3c(c1)c(=O)c(C(=O)NCc1ccc(Cl)cc1)cn3CC(=O)N2C)C[C@@H](O)c1ccco1 |
| 180 °C | Cc1cc(COc2ccc(S(=O)(=O)NC[C@@H](C(=O)NO)N3CCN(Cc4ccc(F)cc4)CC3)cc2)c2ccccc2n1 |
| 143 to 144 °C | COc1cccc([C@H]2O[C@H](CC(=O)NCc3ccc(C(=O)O)cc3)C(=O)N(CC(C)(C)CO)c3ccc(Cl)cc32)c1OC |
| 98 to 101 °C | CCOC(=O)C1=C(C)N(C(=O)c2ccccc2)C(C)=C(C(=O)OCC)C1c1cccc([N+](=O)[O-])c1 |
| 92 to 93 °C | CCOC(=O)N1CCN(C2Cc3cc(Cl)ccc3Sc3ccccc32)CC1 (stereo not drawn) |
| 184 to 186 °C | CCCCC(CC(=O)Nc1cc(C(N)=O)ccc1C(C)(C)C)c1ccc(OC)cc1OCC (stereo not drawn) |
| 83 to 84 °C | O=C(N[C@H](Cc1ccc(C(F)(F)F)cc1)[C@@H](O)c1ccc(F)cc1)c1cccc2cccnc12 (racemic) |
| 210 to 212 °C | CN(C)c1ccc2c(c1)C(=O)CC(c1ccccc1OCc1ccccc1)=N2 |
| 196 to 197 °C | O=c1ccn(CCO)c(C(O)c2ccccc2OCc2ccccc2)c1OCc1ccccc1 (stereo not drawn) |
| 210 to 212 °C | CN1C(=O)c2cscc2N(C(=O)Cc2ccccc2)c2ccccc21 |
| 230 to 234 °C | O=C1Nc2ccc(Cl)cc2SC1c1ccc(Cl)cc1 (stereo not drawn) |
| 231 to 233 °C | CC(=O)c1cnc2c(NC(=O)c3c(Cl)cccc3Cl)cccc2c1N1CCOCC1 |
| 161 °C | CCOc1ccc2c(c1)n(C1CCCCC1)c(=O)n2Cc1ccc(C(=O)NC(C)(C)CN(C)C)cc1OC |
